Entries after “also recorded” stand apart in the source; their conditions may differ.
Key:
[1] = system: cutaneous squamous cell carcinoma cell colonies (SCC cells); experiment: Drug resistance screen of squamous carcinoma cell colonies in microbubble well arrays, CalceinAM/PI live/dead staining; type: cell-based
Method: To enrich for the sphere cells, established colonies were cultured in the presence of a chemotherapeutic agent (e.g. Cisplatin). Traditional chemotherapeutic agents work by killing rapidly dividing cells, one of the main properties of most cancer cells. This means that chemotherapy also harms cells that divide rapidly under normal circumstances. Most chemotherapeutic drugs work by impairing mitosis (cell division), effectively targeting fast-dividing cells and inducing apoptosis. After Day 7 the cell culture media was changed and 10 uM or 10 nM cisplatin and incubated for 2 to 7 days, respectively. After which the chips were transferred into fresh media prior to a live/dead staining with CalceinAM/PI followed by stem cell marker analysis.

[2] = system: multi-cellular tumor spheroids; conditions: microbubble well array based perfusion system; cited from earlier work

Row | Compound | surviving sphere cells as share of initial cells seeded in the MB well array ([1]; 10 μM Cisplatin for 48 hr, CalceinAM (live) / propidium iodide (dead) staining, colonies from one or two cells per MB well) [%] | drug resistance of spheroid versus spread cell morphology (live/dead staining) ([1]; established colonies, 10 uM or 10 nM cisplatin for 2 to 7 days, respectively, CalceinAM/PI) | resistance of spheroid cells versus adherent cells to treatment [2]
1 | N.N.[Cl][Pt][Cl] [Cisplatin] | ~5 | the spheroid cells have greater resistance in response to chemo drug than the spread cell; also recorded: sphere cells exhibit drug resistance | 
2 | COc1cccc2c1C(=O)c1c(O)c3c(c(O)c1C2=O)C[C@@](O)(C(=O)CO)C[C@@H]3O[C@H]1C[C@H](N)[C@H](O)[C@H](C)O1 [doxorubicin] |  |  | spheroid cells are more resistant to doxorubicin treatment than adherent cells
